Data on one compound can be found in patent publication US20060173066A1, “Remedy for diabetes” (Kyowa Hakko Kogyo Co., Ltd., priority 2003, published 2006).

What all share (type): in vivo
The subject of experiment [1] is KK-Ay/Ta Jcl mice of a type 2 diabetic model. Put plainly: Example 1: serum-insulin level after 18 hours fasting in mice fed CE-2 feed with 1% by weight of test substance. The source says:
(§1) KK-Ay/Ta Jcl mice (Clea Japan, Inc.; male; six weeks age) (15 mice) of a type 2 diabetic model were divided into three groups each comprising five mice and named group 1 to group 3.
(§2) The mice of the groups 1 to 3 were made free to take feed and water. A commercially available feed CE-2 (manufactured by Clea Japan, Inc.) was ingested to the mice of group 1. CE-2 to which 1% by weight of trans-4-hydroxy-L-proline (manufactured by Kyowa Hakko Kogyo; hereinafter, abbreviated as hydroxyproline) was added was ingested to the mice of group 2. CE-2 to which 1% by weight of trans-N-acetyl-4-hydroxy-L-proline (manufactured by Kyowa Hakko Kogyo; hereinafter, abbreviated as N-acetylhydroxyproline) was added was ingested to the mice of group 3.
(§3) On the initial day of the test and on the 17th day thereafter, blood was collected from tail vein and blood-sugar level upon non-fasting was measured by a Medisafe Reader GR-101 (manufactured by Thermo Co.). The mice were fasted for 18 hours during the 17th day to the 18th day after the start of the test and whole blood was collected from descending vena cava to prepare serum. The serum-insulin level was measured by a Levi Insulin Kit Mouse-T (manufactured by Shibayagi). The value was shown by mean value±standard error (n=5) and statistic ratio of risk (p value) was determined by a t-test. With regard to the ingested amounts during the test periods, there was no significant difference among the groups 1 to 3.

Experiment [2] has as its system GK/Jcl rats of a type 2 diabetic model. Nature of the experiment: Example 4: blood-sugar level after single oral administration in rats. Particulars: 1,000 mg/kg B.W. oral. As to the method:
GK/Jcl rats (Clea Japan, Inc; male; nine weeks age) (12 mice) of a type 2 diabetic model were divided into two groups each comprising six mice and named group 1 and group 2.
Five ml/kg B.W. of a solvent (0.5% (w/v) methyl cellulose #400) was orally administered to the rats of the group 1. A 200 mg/ml solution of the hydroxyproline in the same solvent was orally administered to the rats of the group 2 so as to make the amount of administration 1,000 mg/kg B.W. Blood was collected from tail vein upon administration of the solvent or the hydroxyproline solution (0 minute) and 30 minutes, 60 minutes and 120 minutes after the administration and blood-sugar levels were measured by a Medisafe Reader GR-101. The value was shown by mean value±standard error (n=6) and statistic ratio of risk (p value) was determined by a t-test.

Experiment [3] has the same test system. Nature of the experiment: Example 5: blood-sugar level after oral glucose load in fasted rats. The following applies: for Blood-Sugar Level, 30 min: 30 minutes after glucose 2 g/kg; for Blood-Sugar Level, 30 min / Blood-Sugar Level, −30 min / Blood-Sugar Level, 60 min / Blood-Sugar Level, 120 min / Blood-Sugar Level, 0 min: n=6; for Blood-Sugar Level, −30 min: 30 minutes before glucose 2 g/kg (baseline, at dosing), mean ± standard error; for Blood-Sugar Level, 60 min: 60 minutes after glucose 2 g/kg; for Blood-Sugar Level, 120 min: 120 minutes after glucose 2 g/kg; for Blood-Sugar Level, 0 min: upon glucose administration 2 g/kg. As to the method:
GK/Jcl rats (Clea Japan, Inc.; male; nine weeks age) (18 mice) of a type 2 diabetic model were divided into three groups each comprising six mice and named groups 1 to 3.
After fasting for 18 hours, 5 ml/kg B.W. of a solvent (0.5% (w/v) methyl cellulose #400) was orally administered to the rats of the group 1. A 60 mg/ml solution of the hydroxyproline in the same solvent was orally administered to the rats of the group 2 so as to make the amount of administration 300 mg/kg B.W. A 200 mg/ml solution of the hydroxyproline in the same solvent was orally administered to the rats of the group 3 so as to make the amount of administration 1,000 mg/kg B.W. After 30 minutes from the oral administration, 2 g/kg B.W. of a 20% (w/v) aqueous solution of glucose was orally administered to the mice of the groups 1 to 3 to load with sugar. Blood was collected from tail vein 30 minutes before the administration of the aqueous glucose solution (−30 minutes), upon the administration (0 minute) and 30 minutes, 60 minutes and 120 minutes after the administration and blood-sugar levels were measured by a Medisafe Reader GR-101.
The value was shown by mean value±standard error (n=6) and statistic ratio of risk (p value) between the groups 1 and 2 and that between the groups 1 and 3 was determined by a one-way layout dispersion analysis and by a Dunnett test.

Experiment [4] relates to KK-Ay/Ta Jcl mice of a type 2 diabetic model. Put plainly: Example 1: non-fasting blood-sugar level in mice fed CE-2 feed with 1% by weight of test substance.
Source text: as §1, §2, §3

Take `O=C(O)[C@@H]1C[C@@H](O)CN1` [hydroxyproline, trans-4-hydroxy-L-proline]: the “antidiabetic action by improving insulin resistance (conclusion from Tables 1 and 2)” value in experiment [1] is given as “show an antidiabetic action by improving the insulin resistance”. Moreover, in experiment [1] (18th day after 18 hours fasting, mean ± standard error, n=5), the “Serum-Insulin Level” value was 1.01 ± 0.08 ng/mL. Further, the “antidiabetic action (conclusion from Table 6)” value in experiment [2] is “antidiabetic action”. The “Blood-Sugar Level, 30 min” value in experiment [2] (30 minutes after administration, mean ± standard error, n=6) worked out at 220.3 ± 13.8 mg/dL; in experiment [3] (300 mg/kg B.W. oral) it was 269.5 ± 15.3 mg/dL; in experiment [3] (1,000 mg/kg B.W. oral) it was 226.2 ± 3.0 mg/dL. For the same compound, the “Blood-Sugar Level, 60 min” value in experiment [2] (60 minutes after administration, mean ± standard error, n=6) came to 189.5 ± 10.9 mg/dL; in experiment [3] (300 mg/kg B.W. oral) it was 298.2 ± 7.5 mg/dL; in experiment [3] (1,000 mg/kg B.W. oral), 247.3 ± 4.4 mg/dL. The “Blood-Sugar Level, 120 min” value worked out at 156.0 ± 6.8 mg/dL in experiment [2] (120 minutes after administration, mean ± standard error, n=6); 207.5 ± 6.3 mg/dL in experiment [3] (300 mg/kg B.W. oral); 181.2 ± 7.3 mg/dL in experiment [3] (1,000 mg/kg B.W. oral). The “Blood-Sugar Level, 0 min” value in experiment [2] (upon administration (baseline), mean ± standard error, n=6) is 189.2 ± 8.4 mg/dL; in experiment [3] (300 mg/kg B.W. oral), 144.2 ± 7.2 mg/dL; in experiment [3] (1,000 mg/kg B.W. oral), 137.0 ± 6.6 mg/dL. The “Blood-Sugar Level, −30 min” value stood at 113.3 ± 2.7 mg/dL in experiment [3] (300 mg/kg B.W. oral) and 112.2 ± 3.3 mg/dL in experiment [3] (1,000 mg/kg B.W. oral). The “antidiabetic action (conclusion from Table 7)” value in experiment [3] (300 and 1,000 mg/kg B.W. oral, glucose load) is listed as “dose-dependent antidiabetic-action”. In addition, the “antidiabetic action (conclusion from Table 1)” value in experiment [4] (17 days) is listed as “antidiabetic action”. Besides, the “Blood-Sugar Level, 17th Day of the Test” value in experiment [4] (non-fasting, tail vein blood, 17th day, mean ± standard error, n=5) stood at 260.4 ± 10.8 mg/dL. In addition, in experiment [4] (non-fasting, tail vein blood, initial day (baseline), mean ± standard error, n=5), the “Blood-Sugar Level, Initial Day of the Test” value came out at 243.0 ± 12.2 mg/dL.
